Data published in EPA's ToxValDB 9.5 (doi:10.2903/j.efsa.2005.33ar).

Key:
Rattus norvegicus = settings: for NOAEL: reproduction developmental
Aphidius rhopalosiphi = settings: not reported; mortality
Bibionidae = settings: chronic/long-term; duration: 26 days
Canidae = settings: chronic; duration: 1 years; Dog Other; body weight
Bird = settings: acute; oral; unspecified; mortality
Daphnia magna = settings: chronic/long-term; duration: 21 days; mobility
Apis mellifera = settings: acute, dermal, mortality
Oryctolagus sp. = settings: reproduction developmental; body weight
Landoltia sp. = settings: chronic/long-term; biomass

`CC1(C)CC/C(=C\c2ccc(Cl)cc2)C1(O)Cn1cncn1` (stereo not drawn) [Triticonazole] was tested, and the LD50 (Rattus norvegicus; acute, mortality) was > 2000 mg/kg, the NOAEL (Rattus norvegicus; F) was 48 mg/kg-day and the NOAEL (Rattus norvegicus; M) was 49 mg/kg-day. For the same compound, the LEL (Aphidius rhopalosiphi) was 25 g/ha, the NOEC (Bibionidae) was 0.0777 mg/L and the NOAEL (Canidae) was 2.5 mg/kg-day. The LD50 (Bird) was > 2000 mg/kg, the LD50 (Colinus virginianus; acute, oral, diet, mortality) was > 693 mg/kg and the NOAEL (Colinus virginianus; reproduction developmental) was 19.5 mg/kg-day. For the same compound, the NOEC (Daphnia magna) was 0.092 mg/L, the LC50 (Oncorhynchus mykiss; acute, duration: 96 hours, mortality) was > 3.6 µg/mL and the NOEC (Oncorhynchus mykiss; chronic/long-term, duration: 28 days, growth) was 0.01 mg/L. For the same compound, the LC50 (Tagia sp.; acute, duration: 14 days, mortality) was > 1000 mg/kg, the NOEC (Tagia sp.; chronic/long-term, duration: 56 days, reproduction) was 500 mg/kg and the LD50 (Apis mellifera) was > 156 µg/piece. The LD50 (Apis mellifera; duration: 48 hours) was > 100 µg/piece, the NOAEL (Oryctolagus sp.) was 5 mg/kg-day and the NOEC (Landoltia sp.) was 0.33 mg/L.
